Reference: ChEMBL document CHEMBL2363022, “Malaria Box Schistosomiasis Screening Data” (2013)

Experiments:
Schistosoma mansoni [1] = format: functional; parameters: scale not given here
Schistosoma mansoni [2] = format: functional; parameters: scale not given here; remark: listed apart in the source
Schistosoma mansoni [3] = system: Schistosoma mansoni
Schistosoma mansoni [4] = assay: MMV: Toxicity @ 5 uM to 4-5 Schistosoma mansoni adult males after 72 h on a scale of 0 (none) - 4 (most). Includes short descriptors of effects as judged visually (PMID:19597541). Only those Malaria box 'drug-like' cpds yielding the most severe phenotypes vs. somules were tested. Caffrey group UCSF.; format: functional
Schistosoma mansoni [5] = assay: MMV: Toxicity @ 5 uM to 4-5 Schistosoma mansoni adult males after 24 h on a scale of 0 (none) - 4 (most). Includes short descriptors of effects as judged visually (PMID:19597541). Only those Malaria box 'drug-like' cpds yielding the most severe phenotypes vs. somules were tested. Caffrey group UCSF.; format: functional
Schistosoma mansoni [6] = assay: MMV: Toxicity @ 5 uM to 4-5 Schistosoma mansoni adult males after 48 h on a scale of 0 (none) - 4 (most). Includes short descriptors of effects as judged visually (PMID:19597541). Only those Malaria box 'drug-like' cpds yielding the most severe phenotypes vs. somules were tested. Caffrey group UCSF.; format: functional
Schistosoma mansoni [7] = assay: (§1) MMV: Motility assay. Percent change (relative to DMSO controls) @ 5 uM of movement of 4-5 Schistosoma mansoni adult males after 48 h as measured by the Consensus Voting Luminance Difference algorithm available on WormAssay (PMID:22303493). Occasional incongruence ocurrs between the motility scores and the visually adjudicated 'toxicity scores'. In these cases the 'toxicity score' should be prioritized. Only those Malaria box 'Drug-like' cpds yielding the most severe phenotypes vs. somules were tested. Caffrey group UCSF.; format: functional
Schistosoma mansoni [8] = format: functional; parameters: scale not given here; remark: listed apart in the source
Schistosoma mansoni [9] = assay: as §1, with “24” for “48”; format: functional
Schistosoma mansoni [10] = assay: as §1, with “72” for “48”; format: functional

Structure (SMILES)	Toxicity (Schistosoma mansoni [1])	Toxicity (Schistosoma mansoni [2])	Toxicity (Schistosoma mansoni [3])	Toxicity (Schistosoma mansoni [4])	Toxicity (Schistosoma mansoni [5])	Toxicity (Schistosoma mansoni [6])	Motility (Schistosoma mansoni [7])	Toxicity (Schistosoma mansoni [8])	Motility (Schistosoma mansoni [9])	Motility (Schistosoma mansoni [10])
CCOc1cc(Cl)c(C(C)NC(=O)c2cccc(OC)c2)cc1OCC (stereo not drawn)	1	2	No effect	–	–	–	–	–	–	–
Br.CCN(CC)S(=O)(=O)c1ccc(-c2csc(Nc3ccc(C)c(C)c3)n2)cc1	2	2	–	4	2	2	3.9	2	21.8	2.5
CC(C)OCc1cc(CN2CCN(c3cccc(Cl)c3)CC2)c(O)c2ncccc12	2	4	–	2	2	2	55.2	3	27.4	59.8
O=C(Nc1cccc(C(F)(F)F)c1)c1cc(Cl)ccc1O	4	4	–	4	4	4	0.4	4	0.5	0.7
Cl.Clc1cc(Br)ccc1-c1ccc(CNCC2CCNCC2)o1	4	4	–	2	2	3	52.5	4	27.8	On sides, dark
Cc1cc(C)c2nc(N3CCC(C(=O)NCCCN4CCC(N5CCCCC5)CC4)CC3)sc2c1	4	4	–	0	0	0	125.2	4	97.4	117
